Laboratory results from patent US7223766B2, “Bi-cyclic pyrimidine inhibitors of TGFβ” (Scios, Inc., priority 2003, dated 2007).
pIC50: −log10 of the molar value.

Tests used:
TGF R1 kinase = target: T1, TGF R1 kinase (Homo sapiens, UniProt P36897); assay: TGF-β inhibition assay: phosphorylation of the substrate casein by TGF R1 kinase; type: biochemical; conditions: table names no assay; casein assay of Example 2: 2.5 μM ATP, 100 μM casein, 6.4 nM TGF R1 kinase
T1 sequence (P36897 34-503): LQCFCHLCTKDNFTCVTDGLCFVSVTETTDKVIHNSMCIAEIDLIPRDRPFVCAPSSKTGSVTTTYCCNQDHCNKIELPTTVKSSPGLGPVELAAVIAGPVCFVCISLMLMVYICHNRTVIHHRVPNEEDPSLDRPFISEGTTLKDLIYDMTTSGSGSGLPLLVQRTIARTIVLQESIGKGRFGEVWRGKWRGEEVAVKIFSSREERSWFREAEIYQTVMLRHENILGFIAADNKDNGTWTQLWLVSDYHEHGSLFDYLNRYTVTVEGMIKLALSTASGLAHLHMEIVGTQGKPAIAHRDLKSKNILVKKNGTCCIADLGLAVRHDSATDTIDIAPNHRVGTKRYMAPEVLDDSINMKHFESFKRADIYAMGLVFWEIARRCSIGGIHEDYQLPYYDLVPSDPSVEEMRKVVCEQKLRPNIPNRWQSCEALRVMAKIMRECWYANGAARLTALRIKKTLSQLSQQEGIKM
Method: Invention compounds were tested for their abilities to inhibit the phosphorylation of the substrate casein. The assay was conducted as follows: Compound dilutions and reagents were prepared fresh daily. Compounds were diluted from DMSO stock solutions to 2 times the desired assay concentration, keeping final DMSO concentration in the assay less than or equal to 1%. TGF RI kinase was diluted to 4 times the desired assay concentration in buffer and DTT. ATP and casein were diluted into 4× reaction buffer, and gamma-^32P-ATP was added at 50 μCi/mL.
The assay was performed by adding 10 μl of the enzyme to 20 μl of the compound solution. The reaction was initiated by the addition of 10 μl of the casein/ATP mix. Final assay conditions included 2.5 μM ATP, 100 μM casein, 6.4 nM TGF R1 kinase, and […] in 20 mM Tris buffer, pH 7.5. The reactions were incubated at room temperature for 45 minutes. The reactions were then stopped by transferring 23 μl of reaction mixture onto a phosphocellulose 96-well filter plate, which had been pre-wetted with 15 μl of 0.25M H3PO4 per well. After 5 minutes, the wells were washed 4× with 75 mM H3PO4 and once with 95% ethanol. The plate was dried, scintillation cocktail was added to each well, and the wells were counted in a Packard TopCount microplate scintillation counter. The ability of a compound to inhibit the enzyme was determined by comparing the counts obtained in the presence of the compound to those of the positive control (in the absence of compound) and the negative control (in the absence of enzyme).
In both of the assays referenced above, IC50 values can be determined with curve-fitting plots available with common software packages. Approximate IC50 values can be calculated using formula: IC50 (app)=A×i/(1−A) where A=fractional activity and i=total inhibitor concentration.

P-Smad 2/3 = assay: Bleomycin-induced SMAD phosphorylation in rats, phospho SMAD 2/3 ELISA of lung tissue; type: in vivo, rat; conditions: male Sprague-Dawley rats, intratracheal bleomycin, oral 40 mg/kg bid days 1 to 5, versus control group
Method: The effect of TGF-beta inhibitors on bleomycin-induced SMAD phosphorylation was studied in male Sprague-Dawley rats purchased from Charles River. Rats were housed in groups of two in the animal facility and provided with filtered air at a constant temperature and humidity. The rats were allowed to acclimate to the new environment for one week before all treatments. A 12:12 hour light-dark cycle was maintained, and the animals had free access to food and water.
To induce SMAD activation, rats were intubated with 0.5 ml of saline or 0.5 ml of 1.0 unit/ml of bleomycin by intratracheal injection under anesthesia. The anesthetic solution used was a mixture of 0.4 ml of ketamine (100 mg/ml) and 0.25 ml of xylazine (20 mg/ml) at a dose of 1.3 ml/kg.
On days 1 to 5, treated rats were weighed and orally dosed with compound 35 two-times a day at 40 mg/kg.
On Day 5, after dosing, rats were sacrificed by an overdose of the ketamine/xylazine cocktail, and then the trachea, heart and lungs of the animals were removed en bloc. All lung lobes were collected, dissected and stored in −80° C. for phospo SMAD ELISA assays.
To evaluate the effect of SMAD activation (an indicia of fibrosis), a phospho SMAD 2/3 ELISA assay was performed using the lung tissue of the sacrificed animals.

Row | SMILES | pIC50 (TGF R1 kinase) | bleomycin-induced phosphorylation of P-Smad 2/3 in the lung (P-Smad 2/3; 40 mg/kg) | bleomycin-induced phosphorylation of P-Smad 2/3 in the lung (P-Smad 2/3; listed as compound 35, 40 mg/kg)
1 | CNC(=O)c1cnccc1Nc1nc(-c2cc(Cl)ccc2F)nc2c1CCC2 [Compound 35] | 7.31 | significantly reduce | reduce
2 | CC1CCCCN1CCCNC(=O)c1cnccc1Nc1nc(-c2cc(Cl)ccc2F)nc2c1CCC2 (stereo not shown) [Compound 74] | 6.94 | – | –
3 | O=C(NCCN1CCCC1)c1cnccc1Nc1nc(-c2cc(Cl)ccc2F)nc2c1CCC2 [Compound 75] | 6.15 | – | –
4 | O=C(NCCN1CCCCC1)c1cnccc1Nc1nc(-c2cc(Cl)ccc2F)nc2c1CCC2 [Compound 78] | 5.61 | – | –
5 | CCN(CC)CCNC(=O)c1cnccc1Nc1nc(-c2ccccc2F)nc2c1CCC2 [Compound 79] | 5.26 | – | –
6 | Cc1cnccc1Nc1nc(-c2cc(Cl)ccc2F)nn2cccc12 [Compound 80] | 6.07 | – | –
7 | Fc1ccccc1-c1cc(Nc2ccncc2)n2ncnc2n1 [Compound 82] | 5.05 | – | –
8 | Fc1ccccc1-c1cc(Nc2ccncn2)n2ncnc2n1 [Compound 83] | 4.77 | – | –
